Experimental data: patent US10308643B2, “Heterocyclic compound” (Takeda Pharmaceutical Company Limited, priority 2015, dated 2019)

Columns and labels:
Assay type in all cases: biochemical
[1] = biological target: T1, HDAC6 enzyme (Homo sapiens, UniProt Q9UBN7); experiment: HDAC1/6 Enzyme Inhibitory Assay (HDAC-Glo I/II Assay kit), HDAC6; conditions: 1 μM test compound, wells without enzyme = 100% inhibition; for inhibition at 1 µM: read-out: HDAC6 inhibitory rate (%) (1 μM)
T1 construct: transducing full length HDAC1 and HDAC6 genes into Sf-9 insect cells; GST; purchased SignalChem; host or cells: Sf-9 insect cells
T1 sequence (Q9UBN7 1-1215): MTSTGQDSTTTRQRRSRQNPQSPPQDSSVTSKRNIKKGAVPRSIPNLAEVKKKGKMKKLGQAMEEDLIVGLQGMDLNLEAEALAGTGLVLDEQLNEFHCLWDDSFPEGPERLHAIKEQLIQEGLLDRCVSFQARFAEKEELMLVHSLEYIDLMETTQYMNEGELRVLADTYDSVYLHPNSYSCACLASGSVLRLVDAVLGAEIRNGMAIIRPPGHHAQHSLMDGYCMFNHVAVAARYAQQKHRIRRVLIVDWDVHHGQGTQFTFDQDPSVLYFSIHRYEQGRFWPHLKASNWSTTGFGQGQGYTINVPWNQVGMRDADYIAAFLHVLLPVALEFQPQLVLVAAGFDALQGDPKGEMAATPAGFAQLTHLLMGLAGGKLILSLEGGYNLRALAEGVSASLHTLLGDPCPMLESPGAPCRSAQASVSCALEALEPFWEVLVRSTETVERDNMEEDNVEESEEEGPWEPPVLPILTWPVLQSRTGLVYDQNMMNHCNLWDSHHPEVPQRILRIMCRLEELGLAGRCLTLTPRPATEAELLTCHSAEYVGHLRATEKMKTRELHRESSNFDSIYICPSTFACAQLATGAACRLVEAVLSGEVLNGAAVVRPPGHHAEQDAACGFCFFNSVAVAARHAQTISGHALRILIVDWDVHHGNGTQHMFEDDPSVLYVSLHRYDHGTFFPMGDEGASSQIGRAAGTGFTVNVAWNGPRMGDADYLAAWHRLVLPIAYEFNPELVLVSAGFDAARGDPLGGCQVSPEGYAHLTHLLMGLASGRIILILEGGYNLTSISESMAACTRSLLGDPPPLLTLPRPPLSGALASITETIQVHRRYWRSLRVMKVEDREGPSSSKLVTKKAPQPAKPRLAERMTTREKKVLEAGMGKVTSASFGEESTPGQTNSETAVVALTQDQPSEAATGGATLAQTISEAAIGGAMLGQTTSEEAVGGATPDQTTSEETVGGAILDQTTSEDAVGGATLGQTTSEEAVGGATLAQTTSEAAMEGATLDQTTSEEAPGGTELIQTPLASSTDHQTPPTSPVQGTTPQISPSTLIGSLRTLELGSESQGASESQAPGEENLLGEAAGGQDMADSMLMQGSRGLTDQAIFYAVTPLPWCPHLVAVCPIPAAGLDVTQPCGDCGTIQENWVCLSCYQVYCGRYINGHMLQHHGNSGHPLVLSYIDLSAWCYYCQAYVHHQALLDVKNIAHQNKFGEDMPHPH
In short: (§1)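 Enzyme source: full-length HDAC1/HDAC6, Sf-9, GST-purified. Assay buffer 24 mM Tris-HCl (pH 7.5), 1 mM MgCl2, 0.35 mM KCl, 135 mM NaCl. Compound–enzyme 60 min RT, then HDAC-Glo reagent 20 min RT, luminescence; inhibition relative to no-enzyme control.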

[2] = biological target: T2, HDAC1 enzyme (Homo sapiens, UniProt Q13547); experiment: HDAC1/6 Enzyme Inhibitory Assay (HDAC-Glo I/II Assay kit), HDAC1; conditions: 1 μM test compound, wells without enzyme = 100% inhibition; for inhibition at 1 µM: read-out: HDAC1 inhibitory rate (%) (1 μM)
T2 construct: transducing full length HDAC1 and HDAC6 genes into Sf-9 insect cells; GST; purchased SignalChem; host or cells: Sf-9 insect cells
In short: as §1

[3] = biological target: T3, HDAC9 enzyme (Homo sapiens, UniProt Q9UKV0); experiment: HDAC9 Enzyme Inhibitory Assay (HDAC-Glo class IIa); conditions: 1 μM test compound, wells without enzyme = 100% inhibition; for inhibition at 1 µM: read-out: HDAC9 inhibitory rate (%) (1 μM)
T3 construct: transducing full length HDAC9 gene into Sf-9 insect cells; made in house; host or cells: Sf-9 insect cells
In short: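 Full-length human HDAC9 from Sf-9 cells, Ni-NTA purified, preincubated with compound for 60 min at room temperature in Tris-HCl pH 7.5 buffer (MgCl2, KCl, NaCl, glutathione, Tween-20). HDAC-Glo class IIa substrate-developer added; luminescence read after 20 min, with no-enzyme wells defining 100% inhibition.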

T2 sequence (Q13547 whole entry): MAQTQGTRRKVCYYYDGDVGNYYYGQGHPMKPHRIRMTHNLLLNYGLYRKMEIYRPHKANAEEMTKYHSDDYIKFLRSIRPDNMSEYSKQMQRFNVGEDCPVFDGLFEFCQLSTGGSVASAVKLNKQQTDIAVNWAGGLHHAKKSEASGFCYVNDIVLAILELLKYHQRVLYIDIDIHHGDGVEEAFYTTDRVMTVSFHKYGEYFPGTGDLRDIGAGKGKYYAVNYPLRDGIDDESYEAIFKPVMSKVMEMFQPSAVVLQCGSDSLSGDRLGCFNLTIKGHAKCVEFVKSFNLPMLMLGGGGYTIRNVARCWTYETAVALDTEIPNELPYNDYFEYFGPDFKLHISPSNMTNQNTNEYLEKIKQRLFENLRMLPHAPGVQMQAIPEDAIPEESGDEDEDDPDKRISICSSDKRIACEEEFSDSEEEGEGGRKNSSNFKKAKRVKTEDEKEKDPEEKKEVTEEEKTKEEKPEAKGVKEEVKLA
T3 sequence (Q9UKV0 whole entry, species assumed): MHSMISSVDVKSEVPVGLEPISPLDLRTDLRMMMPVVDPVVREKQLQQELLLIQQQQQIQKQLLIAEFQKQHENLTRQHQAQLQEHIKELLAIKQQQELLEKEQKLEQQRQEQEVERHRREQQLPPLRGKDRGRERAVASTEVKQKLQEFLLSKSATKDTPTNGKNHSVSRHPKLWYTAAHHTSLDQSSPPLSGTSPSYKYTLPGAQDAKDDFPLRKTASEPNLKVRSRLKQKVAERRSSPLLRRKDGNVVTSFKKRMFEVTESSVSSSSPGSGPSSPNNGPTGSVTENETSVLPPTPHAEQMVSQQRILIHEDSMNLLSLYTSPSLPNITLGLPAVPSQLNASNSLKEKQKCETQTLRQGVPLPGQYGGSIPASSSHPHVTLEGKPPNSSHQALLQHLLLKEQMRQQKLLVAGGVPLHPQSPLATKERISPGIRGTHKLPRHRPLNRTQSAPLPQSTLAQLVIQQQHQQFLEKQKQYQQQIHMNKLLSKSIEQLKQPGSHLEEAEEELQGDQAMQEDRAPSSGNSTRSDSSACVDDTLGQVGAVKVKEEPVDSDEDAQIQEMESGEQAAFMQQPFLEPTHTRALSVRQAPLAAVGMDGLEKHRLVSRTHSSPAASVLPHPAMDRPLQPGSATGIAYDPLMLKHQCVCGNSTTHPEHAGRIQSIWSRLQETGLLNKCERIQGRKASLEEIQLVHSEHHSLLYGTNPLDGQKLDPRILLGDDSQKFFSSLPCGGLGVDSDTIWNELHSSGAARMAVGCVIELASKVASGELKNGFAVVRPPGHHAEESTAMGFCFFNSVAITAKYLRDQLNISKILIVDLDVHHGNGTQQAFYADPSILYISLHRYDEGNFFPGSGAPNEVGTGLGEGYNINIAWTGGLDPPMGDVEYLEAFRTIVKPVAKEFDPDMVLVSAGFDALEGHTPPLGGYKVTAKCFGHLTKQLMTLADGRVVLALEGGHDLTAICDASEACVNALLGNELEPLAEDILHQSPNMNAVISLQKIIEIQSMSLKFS

Row | Compound | HDAC6 inhibitory rate (%) (1 μM) [1] | HDAC1 inhibitory rate (%) (1 μM) [2] | HDAC9 inhibitory rate (%) (1 μM) [3] | inhibition at 1 µM [1] | inhibition at 1 µM [2] | inhibition at 1 µM [3]
1 | O=C(CCC(F)F)N[C@@H]1CCCC[C@H]1N1Cc2ccc(-c3noc(C(F)(F)F)n3)cc2C1=O [Example 126, 4,4-difluoro-N-((1R,2R)-2-(1-oxo-6-(5-(trifluoromethyl)-1,2,4-oxadiazol-3-yl)-1,3-dihydro-2H-isoindol-2-yl)cyclohexyl)butanamide] |  |  |  | 100% | 10% | 59%
2 | CC(=O)N1CC[C@@H](c2ccccc2)[C@H](N2Cc3cc(-c4noc(C(F)(F)F)n4)ccc3C2=O)C1 (relative stereo) [Example 73, trans-2-(1-acetyl-4-phenylpiperidin-3-yl)-5-(5-(trifluoromethyl)-1,2,4-oxadiazol-3-yl)isoindolin-1-one] |  |  |  | 77% | 19% | 81%
3 | O=C(N[C@@H]1CCCC[C@H]1N1Cc2ccc(-c3noc(C(F)(F)F)n3)cc2C1=O)c1cocn1 [Example 103, N-((1R,2R)-2-(1-oxo-6-(5-(trifluoromethyl)-1,2,4-oxadiazol-3-yl)-1,3-dihydro-2H-isoindol-2-yl)cyclohexyl)-1,3-oxazole-4-carboxamide] |  |  |  | 102% | 14% | 55%
4 | O=C1c2cc(-c3noc(C(F)(F)F)n3)ccc2CN1[C@H]1CCc2ccccc21 [Example 24, 2-((1S)-2,3-dihydro-1H-inden-1-yl)-6-(5-(trifluoromethyl)-1,2,4-oxadiazol-3-yl)isoindolin-1-one] |  |  |  | 95% | 6% | 52%
5 | CN1CCC[C@H]1C(=O)N[C@@H]1CCCC[C@H]1N1Cc2ccc(-c3noc(C(F)(F)F)n3)cc2C1=O [Example 104, 1-methyl-N-((1R,2R)-2-(1-oxo-6-(5-(trifluoromethyl)-1,2,4-oxadiazol-3-yl)-1,3-dihydro-2H-isoindol-2-yl)cyclohexyl)-L-prolinamide] |  |  |  | 98% | 3% | 43%
6 | O=C1CCC2(CCC(N3Cc4ccc(-c5noc(C(F)(F)F)n5)cc4C3=O)CC2)N1 (stereo not drawn) [Example 64, (5r,8r)-8-(1-oxo-6-(5-(trifluoromethyl)-1,2,4-oxadiazol-3-yl)-1,3-dihydro-2H-isoindol-2-yl)-1-azaspiro[4.5]decan-2-one] |  |  |  | 93% | 6% | 70%
7 | CC(C)(O)C(=O)N[C@@H]1CCCC[C@H]1N1Cc2ccc(-c3noc(C(F)(F)F)n3)cc2C1=O [Example 95, 2-hydroxy-2-methyl-N-((1R,2R)-2-(1-oxo-6-(5-(trifluoromethyl)-1,2,4-oxadiazol-3-yl)-1,3-dihydro-2H-isoindol-2-yl)cyclohexyl)propanamide] |  |  |  | 100% | 3% | 37%
8 | CC(C)(C)OC(=O)N1CC[C@H](N2Cc3ccc(-c4noc(C(F)(F)F)n4)cc3C2=O)[C@H](c2ccccc2)C1 [Example 14, tert-butyl (3R,4S)-4-(1-oxo-6-(5-(trifluoromethyl)-1,2,4-oxadiazol-3-yl)-1,3-dihydro-2H-isoindol-2-yl)-3-phenylpiperidine-1-carboxylate] |  |  |  | 68% | 0% | 48%
9 | CC(C)(C)OC(=O)N1CC[C@@H](c2ccccc2)[C@H](N2Cc3cc(-c4noc(C(F)(F)F)n4)ccc3C2=O)C1 (relative stereo) [Example 71, tert-butyl trans-3-(1-oxo-5-(5-(trifluoromethyl)-1,2,4-oxadiazol-3-yl)-1,3-dihydro-2H-isoindol-2-yl)-4-phenylpiperidine-1-carboxylate] |  |  |  | 36% | 9% | 73%
10 | N[C@H]1CCCC[C@@H]1N1Cc2ccc(-c3noc(C(F)(F)F)n3)cc2C1=O [Example 29, 2-((1S,2S)-2-aminocyclohexyl)-6-(5-(trifluoromethyl)-1,2,4-oxadiazol 3-yl)isoindolin-1-one] |  |  |  | 34% | -2% | 45%
11 | N[C@@H]1CCCC[C@H]1N1Cc2ccc(-c3noc(C(F)(F)F)n3)cc2C1=O [Example 28, 2-((1R,2R)-2-aminocyclohexyl)-6-[5-(trifluoromethyl)-1,2,4-oxadiazol-3-yl)isoindolin-1-one] |  |  |  | 89% | 3% | 78%
12 | O=C(Cc1ccc(F)cc1)N1CCC(N2Cc3ncc(-c4noc(C(F)(F)F)n4)cc3C2=O)CC1 [Example 68, 6-(1-((4-fluorophenyl)acetyl)piperidin-4-yl)-3-(5-(trifluoromethyl)-1,2,4-oxadiazol-3-yl)-6,7-dihydro-5H-pyrrolo[3,4-b]pyridin-5-one] |  |  |  | 90% | 35% | 90%

Results, then the compound that gave them:

Row | HDAC6 inhibitory rate (%) (1 μM) [1] | HDAC1 inhibitory rate (%) (1 μM) [2] | HDAC9 inhibitory rate (%) (1 μM) [3] | inhibition at 1 µM [1] | inhibition at 1 µM [2] | inhibition at 1 µM [3] | Compound
13 | 99% | 13% | 72% |  |  |  | O=C1CCCN1[C@@H]1COCC[C@H]1N1Cc2ccc(-c3noc(C(F)(F)F)n3)cc2C1=O [Example 180, 2-((3S,4R)-3-(2-oxopyrrolidin-1-yl)tetrahydro-2H-pyran-4-yl)-6-(5-(trifluoromethyl)-1,2,4-oxadiazol-3-yl)isoindolin-1-one]
14 | 99% | 8% | 61% |  |  |  | O=C1CCCN1[C@@H]1CCOC[C@H]1N1Cc2ccc(-c3noc(C(F)(F)F)n3)cc2C1=O [Example 178, 2-((3S,4R)-4-(2-oxopyrrolidin-1-yl)tetrahydro-2H-pyran-3-yl)-6-(5-(trifluoromethyl)-1,2,4-oxadiazol-3-yl)isoindolin-1-one]
15 |  |  |  | 95% | 1% | 32% | COC1CN(C(=O)N[C@@H]2CCCC[C@H]2N2Cc3ccc(-c4noc(C(F)(F)F)n4)cc3C2=O)C1 [Example 163, 3-methoxy-N-((1R,2R)-2-(1-oxo-6-(5-(trifluoromethyl)-1,2,4-oxadiazol-3-yl)-1,3-dihydro-2H-isoindol-2-yl)cyclohexyl)azetidine-1-carboxamide]
16 | 98% | 9% | 67% |  |  |  | CC1(C(=O)N[C@@H]2CCCC[C@H]2N2Cc3ccc(-c4noc(C(F)(F)F)n4)cc3C2=O)CC1(F)F (stereo partly drawn) [Example 171, 2,2-difluoro-1-methyl-N-((1R,2R) 2-(1-oxo-6-(5-(trifluoromethyl)-1,2,4-oxadiazol-3-yl)-1,3-dihydro-2H-isoindol-2-yl)cyclohexyl)cyclopropanecarboxamide]
17 |  |  |  | 98% | 16% | 86% | O=C(N[C@H]1CCOC[C@@H]1N1Cc2ccc(-c3noc(C(F)(F)F)n3)cc2C1=O)[C@@H]1CC1(F)F [Example 201, (1S)-2,2-difluoro-N-((3R,4S)-3-(1-oxo-6-(5-(trifluoromethyl)-1,2,4-oxadiazol-3-yl)-1,3-dihydro-2H-isoindol-2-yl)tetrahydro-2H-pyran-4-yl)cyclopropanecarboxamide]
18 |  |  |  | 99% | 5% | 55% | O=C(N[C@@H]1CCCC[C@H]1N1Cc2ccc(-c3noc(C(F)(F)F)n3)cc2C1=O)C1CC1F (stereo partly drawn) [Example 132, 2-fluoro-N-((1R,2R)-2-(1-oxo-6-(5-(trifluoromethyl)-1,2,4-oxadiazol-3-yl)-1,3-dihydro-2H-isoindol-2-yl)cyclohexyl)cyclopropanecarboxamide]
